US8299106B2, “Compositions of kinase inhibitors and their use for treatment of cancer and other diseases related to kinases” (Boston Biomedical, Inc., priority 2007, dated 2012)

Assays:
HT29 = test: Colony formation assay (CFA), HT29; format: cell-based; conditions: grown 7-10 days
Method: (§1) Cell Viability Determination: For colony formation assay, cells were plated in 6 well plates at 2000 cells per well. Twenty-four hours after plating, cells were treated with compound. Colonies were allowed to develop for 7-10 days, at which they were stained with modified Giemsa stain (Sigma). Stained colonies were then counted to determine IC50.
(§2) Compounds 5 [as shown in Example 1], 3 [as shown in Example 1], 7-1[as shown in Example 1], 10-2 [as shown in Example 3], 10-1 [as shown in Example 2], and 13-1 [as shown in Example 4] were tested for their ability to inhibit cell growth and promote cell death using the colony formation assay (CFA). Cells were treated for either 6 or twenty-four hours with the indicated compounds, and then allowed to grow for an additional 7-10 days. Cells were then stained, and colonies counted to determine IC-50 values.
(§3) Similarly, Compound 10-2 [as shown in Example 3] was tested against a wide range of cancer cell lines.

MDA-MB-231 = test: Colony formation assay (CFA), MDA-MB-231; format: cell-based; conditions: grown 7-10 days
Method: as §1, §2

FaDu = test: Colony formation assay (CFA), FaDu; format: cell-based; conditions: Homo sapiens, treated 6 or 24 hours, grown 7-10 days
Method: as §1, §2, §3

[1] = test system: Hoechst side population of SW480 cells; test: Colony formation assay, Hoechst side population vs non-side population; format: cell-based; conditions: colony formation assays, FIG. 4B
Method: as §1
Hoechst Side Population: SW480 cells were removed from the culture dish with trypsin and ethylenediaminetetraacetic acid (“EDTA”), pelleted by centrifugation, washed with phosphate-buffered saline (PBS), and resuspended at 37° C. in Dulbecco's modified Eagle's medium (DMEM) containing 2% FBS and 1 mM 4-(2-hydroxyethyl)-1-piperazineethanesulfonic acid (HEPES). The cells were then labeled with Hoechst 33342 (Invitrogen) at a concentration of 5 μg/mL. The labeled cells were incubated for 120 minutes at 37° C., either alone or with 50 μM verapamil (Sigma-Aldrich, St. Louis). After staining, the cells were suspended in Hanks' balanced saline solution (HBSS; Invitrogen) containing 2% FBS and 1 mM HEPES, passed a through 40 μm mesh filter, and maintained at 4° C. until flow cytometry analysis. The Hoechst dye was excited at 350 nm, and its fluorescence was measured at two wavelengths using a 450 DF10 (450/20 nm band-pass filter) and a 675LP (675 nm long-pass edge filter) optical filter. […]

FaDu xenograft tumors = test: Spherogenesis of cells from treated FaDu xenograft tumors; format: in vivo, mice; conditions: daily po for four days; carboplatin 30 mg/kg, 10-2 100 mg/kg; spheres after 10-14 days
Method: In addition, we also tested if compound 10-2 can target cancer stem cells in vivo. Six-week-old female athymic nu/nu mice were obtained from Charles River Labs (Wilmington, Mass.). Mice were injected subcutaneously on the flank with 6×10^6 FaDu cancer cells in 0.2 mL of serum-free DMEM. After xenografts reached ˜200 mm^3 in size, animals bearing FaDu xenograft tumors were administered daily with either vehicle, carboplatin (30 mg/kg), or compound 10-2 (100 mg/kg) via po for four days before sacrifice. Tumors were then collected for FaDu cells. Single cell suspensions were obtained following animal sacrifice, and sterile removal of tumors. Briefly, tumors were minced with sterile scalpels into 0.1 mm^3 pieces before being digested in 1 mg/mL collagenase/HBSS for 15-30 minutes with constant agitation. Following passage through a 40 μm mesh filter, RBCs, dead cells, and cell debris were removed by layering the cell suspension onto 1 mL of Histopaque and collecting interface layer after centrifugation at 1440×g for 30 minutes. Live cells were then counted and used to measure their ability to form spheres. […] Fresh media was added every three days, and sphere formation was determined after 10-14 days in culture. Spheres with >50 cells were scored. […]

SW480 cells = test: Hoechst side population staining of SW480 cells; format: cell-based; conditions: treated before Hoechst staining (50 μM), FIG. 4A
Method: Hoechst Side Population: SW480 cells were removed from the culture dish with trypsin and ethylenediaminetetraacetic acid (“EDTA”), pelleted by centrifugation, washed with phosphate-buffered saline (PBS), and resuspended at 37° C. in Dulbecco's modified Eagle's medium (DMEM) containing 2% FBS and 1 mM 4-(2-hydroxyethyl)-1-piperazineethanesulfonic acid (HEPES). The cells were then labeled with Hoechst 33342 (Invitrogen) at a concentration of 5 μg/mL. The labeled cells were incubated for 120 minutes at 37° C., either alone or with 50 μM verapamil (Sigma-Aldrich, St. Louis). After staining, the cells were suspended in Hanks' balanced saline solution (HBSS; Invitrogen) containing 2% FBS and 1 mM HEPES, passed a through 40 μm mesh filter, and maintained at 4° C. until flow cytometry analysis. The Hoechst dye was excited at 350 nm, and its fluorescence was measured at two wavelengths using a 450 DF10 (450/20 nm band-pass filter) and a 675LP (675 nm long-pass edge filter) optical filter. The gating on forward and side scatter was not stringent, and only debris was excluded (Goodell et al., 1996 J Exp Med 183, 1797-806).
SW480 cells were stained with Hoechst. The side population (shown in FIG. 4A, upper left panel gated area) was sorted out to enrich the cancer stem cells. […]

[2] = Homo sapiens, HT-29, treated 6 or 24 hours
[3] = Homo sapiens, MDA-MB-231, treated 6 or 24 hours

SMILES | IC50 (HT29; [2]) [nM] | IC50 (MDA-MB-231; [3]) [nM] | also measured
Cc1[nH]c(/C=C2\C(=O)Nc3ccc(-c4csc(-c5ccccc5)n4)cc32)c(C)c1C(=O)N1CCN(C)CC1 [Compound 10-1] | 1500 to 3000 | 800 to 1500 | 
CCN(CC)CCNC(C)c1c(C)[nH]c(/C=C2\C(=O)Nc3ccc(-c4csc(-c5cccnc5)n4)cc32)c1C (stereo not drawn) [Compound 13-2] |  |  | IC50 (FaDu): 300 to 400 nM
Cc1[nH]c(/C=C2\C(=O)Nc3ccc(-c4csc(-c5cccnc5)n4)cc32)c(C)c1C(=O)N1CCN(C)CC1 [Compound 13-1] | 400 to 800 | 100 to 250 | 
Cc1nc(-c2ccc3c(c2)/C(=C/c2[nH]c(C)c(C(=O)N4CCN(C)CC4)c2C)C(=O)N3)cs1 [Compound 7-1] | 6000 to 10000 | 6000 to 10000 | 
COc1cccc2c1C(=O)c1c(O)c3c(c(O)c1C2=O)C[C@@](O)(C(=O)CO)C[C@@H]3O[C@H]1C[C@H](N)[C@H](O)[C@H](C)O1 [Doxorubicin] |  |  | side population relative to non-side population [1]: more resistant
N.N.O=C([O-])C1(C(=O)[O-])CCC1.[Pt+2] [carboplatin] |  |  | spherogenesis of tumor cells after in vivo treatment (FaDu xenograft tumors): unchanged spherogenesis
COc1ccc(CCN(C)CCCC(C#N)(c2ccc(OC)c(OC)c2)C(C)C)cc1OC (stereo not drawn) [Verapamil] |  |  | effect on Hoechst side population (SW480 cells): loss of the side population
Cc1nc(-c2ccc3c(c2)CC(=O)N3)cs1 [Compound 3] |  |  | IC50 (HT29; treated 6 or 24 hours): 50000 to 300000 nM; IC50 (MDA-MB-231; treated 6 or 24 hours): 50000 to 300000 nM
